# Data: patent US20250099448A1, “HETEROCYCLIC COMPOUNDS” (Hoffmann-La Roche Inc., priority 2022, published 2025)
# Molecular target: T1, MAGL protein (Homo sapiens, UniProt Q99685)
# T1 sequence (Q99685 1-303): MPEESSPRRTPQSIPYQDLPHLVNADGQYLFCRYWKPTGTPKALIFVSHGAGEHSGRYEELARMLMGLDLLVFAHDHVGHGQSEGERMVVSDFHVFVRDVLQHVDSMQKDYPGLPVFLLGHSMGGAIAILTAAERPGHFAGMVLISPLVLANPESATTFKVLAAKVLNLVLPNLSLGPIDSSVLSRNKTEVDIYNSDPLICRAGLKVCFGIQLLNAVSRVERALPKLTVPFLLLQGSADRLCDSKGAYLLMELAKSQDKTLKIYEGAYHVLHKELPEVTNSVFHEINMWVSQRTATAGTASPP
# Experiment: 2-AG assay: MAGL inhibitory activity by hydrolysis of 2-arachidonoylglycerol to arachidonic acid, followed by mass spectrometry
# Type: biochemical
# Details: 8 μM 2-arachidonoylglycerol, 15 min preincubation, 30 min reaction at RT, RapidFire MS readout
# Outline: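 Activity was measured by RapidFire SPE–triple-quad MS as the ratio of arachidonic acid to d8-arachidonic acid after 2-AG hydrolysis (8 μM substrate, 30 min, RT, acetonitrile quench). Compounds, tested from 12.5 μM down to […], were first preincubated 15 min with MAGL in TRIS/EDTA/Tween-20 buffer containing 2.5% DMSO.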
row,SMILES,IC50 [nM]
1,O=C(N1CC2(CCN(Cc3ccc(C(F)(F)F)cn3)CC2)C1)N1CC2(CC(c3nnc(C4CC4)[nH]3)C2)C1 [compound 178],1.8
2,"Cn1ccc(CN2CC3(C2)CN(C(=O)N2CC4(CC(c5nc(C6CC6)n[nH]5)C4)C2)C3)n1 [Example 902, [6-(3-cyclopropyl-1H-1,2,4-triazol-5-yl)-2-azaspiro[3.3]heptan-2-yl]-[6-[(1-methylpyrazol-3-yl)methyl]-2,6-diazaspiro[3.3]heptan-2-yl]methanone]",3110
3,O=C(N1CC2(CCC(Cc3ccc(F)cn3)CC2)C1)N1CC2(CC(c3nnc(C4CC4)[nH]3)C2)C1 [compound 144],0.63
4,Cn1cc(OC2CC3(C2)CN(C(=O)N2CC4(CC(c5nc(C6CC6)n[nH]5)C4)C2)C3)cn1 [compound 542],81.9
5,O=C(N1CC2(CCN(c3ncc(Cl)cc3F)CC2)C1)N1CC2(CC(c3nnc(C4CC4)[nH]3)C2)C1 [compound 281],1.02
6,"O=C(N1CC2(CCC(Cc3cnc(C(F)(F)F)cn3)C2)C1)N1CC2(CC(c3nnc(C4CC4)[nH]3)C2)C1 (single isomer, unassigned) [compound 151]",0.51
7,CS(=N)(=O)c1cccc(CC2CC3(C2)CN(C(=O)N2CC4(CC(c5nnc(C6CC6)[nH]5)C4)C2)C3)c1 (stereo not drawn) [compound 124],2.46
8,O=C(N1CC2(CC(Cc3cnc(C(F)(F)F)nc3)C2)C1)N1CC2(CC(c3nnc(C4(O)CC4)[nH]3)C2)C1 [compound 21],5.33
9,"O=C(N1CCC(OCc2ccc(C(F)(F)F)cc2F)CC1)N1CC2(CC(c3nc(C4CC4)n[nH]3)C2)C1 [Example 906, [6-(3-cyclopropyl-1H-1,2,4-triazol-5-yl)-2-azaspiro[3.3]heptan-2-yl]-[4-[2-fluoro-4-(trifluoromethyl)benzyl]oxypiperidino]methanone]",5.61
10,O=C(N1CC2(CC(Oc3cncc(C(F)(F)F)c3)C2)C1)N1CC2(CC(c3nc(C4CC4)n[nH]3)C2)C1 [compound 520],2.23
11,CC(C)Oc1nc(CC2CC3(C2)CN(C(=O)N2CC4(CC(c5nc(C6CC6)n[nH]5)C4)C2)C3)ccc1C(F)(F)F [compound 965],0.03
12,N=S(=O)(c1cccc(CC2CC3(C2)CN(C(=O)N2CC4(CC(c5nnc(C6CC6)[nH]5)C4)C2)C3)c1)C(F)(F)F (racemic) [compound 125],0.08
13,"N=S(=O)(c1ccc(COC2CN(C(=O)N3CC4(CC(c5nc(C6CC6)n[nH]5)C4)C3)C2)c(F)c1)C(F)(F)F (stereo not drawn) [Example 632, [6-(3-cyclopropyl-1H-1,2,4-triazol-5-yl)-2-azaspiro[3,3]heptan-2-yl]-[3-[2-fluoro-4-(trifluoromethylsulfonimidoyl)benzyl]oxyazetidin-1-yl]methanone]",12.3
14,CP(C)(=O)Cc1ccc(C2CN(C(=O)N3CC4(CC(c5nnc(C6CC6)[nH]5)C4)C3)C2)cc1 [compound 381],0.69
15,Cn1nc(CN2CC3(C2)CN(C(=O)N2CC4(CC(c5nc(C6CC6)n[nH]5)C4)C2)C3)cc1C(F)(F)F [compound 681],7.41
16,O=C(N1CC2(CCN(Cc3ccc(C(F)(F)F)cc3F)CC2)C1)N1CC2(CC(c3nnc(C4CC4)[nH]3)C2)C1 [compound 177],0.38
17,"O=C(N1CC(c2ccc(N3CCC(O)(C(F)(F)F)C3)nc2)C1)N1CC2(CC(c3nnc(C4CC4)[nH]3)C2)C1 (single isomer, unassigned) [compound 271]",2.73
18,CC(C)c1cc(C(C)C)n(-c2ccc(C3CN(C(=O)N4CC5(CC(c6nc(C7(O)CC7)n[nH]6)C5)C4)C3)cc2)n1 [compound 751],0.66
19,O=C(N1CC2(CC(Cc3ccc(C(F)(F)F)nn3)C2)C1)N1CC2(CC(c3nc(C4CC(F)(F)C4)n[nH]3)C2)C1 [compound 452],413
20,O=C(N1CC2(CC(Cc3ccc(S(=O)(=O)C(F)(F)F)cn3)C2)C1)N1CC2(CC(c3nc(C4CC4)n[nH]3)C2)C1 [compound 813],0.18
21,O=C(N1CC2(CC(c3nc(C4CC4)n[nH]3)C2)C1)N1CC2(CN(Cc3nccn3C(F)(F)F)C2)C1 [compound 709],24.3
22,O=C(N1CCC(NS(=O)(=O)c2ccc(C(F)(F)F)cc2)CC1)N1CC2(CC(c3nnc(C4CC4)[nH]3)C2)C1 [compound 248],676
23,O=C(N1CC(OCc2ccc(S(=O)(=O)C(F)(F)F)cc2F)C1)N1CC2(CC(c3nc(C4(F)CC4)n[nH]3)C2)C1 [compound 470],5.08
24,N#CC1(c2ccc(C3CN(C(=O)N4CC5(CC(c6nnc(C7CC7)[nH]6)C5)C4)C3)cc2)CC1 [compound 376],2.22
25,O=C(N1CC2(CC(c3nnc(C4CC4)[nH]3)C2)C1)N1CC2(C1)CN(S(=O)(=O)c1cncc(C(F)(F)F)c1)C2 [compound 109],20.1
26,O=C(N1CC2(CC(OCC3(C(F)(F)F)CC3)C2)C1)N1CC2(CC(c3nnc(C4(O)CC4)[nH]3)C2)C1 [compound 69],21.3
27,CS(=O)(=O)c1cccc(CC2CC3(C2)CN(C(=O)N2CC4(CC(c5nnc(C6(O)CC6)[nH]5)C4)C2)C3)c1 [compound 16],1.51

row,SMILES,IC50 [nM]
1,O=C(N1CC2(CCN(Cc3ccc(C(F)(F)F)nc3)CC2)C1)N1CC2(CC(c3nnc(C4CC4)[nH]3)C2)C1 [compound 176],8.71
2,O=C(N1CC(OCc2ccc(S(=O)(=O)C(F)(F)F)cc2F)C1)N1CC2(CC(c3nc(C4CC(F)(F)C4)n[nH]3)C2)C1 [compound 502],262
3,O=C(N1CC(c2ccc(C3(C(F)(F)F)CC3)nc2)C1)N1CC2(CC(c3nnc(C4(O)CC4)[nH]3)C2)C1 [compound 232],43.6
4,O=C(N1CC2(CCC(Cc3ccc(OC(F)F)nc3)CC2)C1)N1CC2(CC(c3nnc(C4(O)CC4)[nH]3)C2)C1 [compound 146],9.79
5,Cn1ncc(CN2CC3(C2)CN(C(=O)N2CC4(CC(c5nc(C6CC6)n[nH]5)C4)C2)C3)c1C(F)(F)F [compound 688],8.96
6,"O=C(N1CC2(CCC(Cc3cnc(C(F)(F)F)cn3)C2)C1)N1CC2(CC(c3nnc(C4CC4)[nH]3)C2)C1 (single isomer, unassigned) [compound 150]",0.82
7,O=C(N1CC(NCc2cc(C(F)(F)F)ccc2Cl)C1)N1CC2(CC(c3nnc(C4CC4)[nH]3)C2)C1 [compound 188],20.7
8,O=C(N1CC(CNS(=O)(=O)c2cccc(C(F)(F)F)c2)C1)N1CC2(CC(c3nnc(C4(O)CC4)[nH]3)C2)C1 [compound 211],136
9,O=C(N1CC2(CCC(Oc3cc(Cl)ccc3Cl)CC2)C1)N1CC2(CC(c3nnc(C4(O)CC4)[nH]3)C2)C1 [compound 346],0.13
10,O=C(N1CC(NCc2cc(C(F)(F)F)ccc2F)C1)N1CC2(CC(c3nnc(C4CC4)[nH]3)C2)C1 [compound 195],130
11,CS(=O)(=O)c1ccc(COC2CN(C(=O)N3CC4(CC(c5nnc(C6CC6)[nH]5)C4)C3)C2)cc1 [compound 333],159
12,CS(=O)(=O)c1cc(C(F)(F)F)ccc1CC1CC2(C1)CN(C(=O)N1CC3(CC(c4nc(C5COC5)n[nH]4)C3)C1)C2 [compound 827],21.2
13,N#Cc1ccc(CC2CC3(C2)CN(C(=O)N2CC4(CC(c5nc(C6COC6)n[nH]5)C4)C2)C3)c(F)c1 [compound 797],9.31
14,"O=C(N1CC(c2ccc(C3(C(F)(F)F)CC3)cc2)C1)N1CC2(CC(c3nnc([C@H](O)C(F)(F)F)[nH]3)C2)C1 (single isomer, unassigned) [compound 230]",3.89
15,O=C(N1C[C@H]2CN(Cc3ccccc3)C[C@H]2C1)N1CC2(CC(c3nnc(C4CC4)[nH]3)C2)C1 [compound 363],244
16,O=C(N1CC(c2cnc(N3CCC(C(F)(F)F)C3)nc2)C1)N1CC2(CC(c3nnc(C4CC4)[nH]3)C2)C1 (stereo not drawn) [compound 264],2.27
17,O=C(N1CC2(CC(Cc3ccc(F)cc3C(F)(F)F)C2)C1)N1CC2(CC(c3nc(C4COC4)n[nH]3)C2)C1 [compound 754],0.43
18,N=S(=O)(c1ccc(CC2CC3(C2)CN(C(=O)N2CC4(CC(c5nc(C6COC6)n[nH]5)C4)C2)C3)cc1)C(F)(F)F (stereo not drawn) [compound 830],36.5
19,O=C(N1CC(c2ccc(NC3(C(F)(F)F)CC3)nc2)C1)N1CC2(CC(c3nnc(C4CCC4)[nH]3)C2)C1 [compound 273],10.7
20,Cn1nc(C(F)(F)F)cc1CN1CC2(C1)CN(C(=O)N1CC3(CC(c4nc(C5CC5)n[nH]4)C3)C1)C2 [compound 650],9.74
21,O=C(N1CC(c2cnc(OCC3(C(F)(F)F)CC3)cn2)C1)N1CC2(CC(c3nc(C4(F)CC4)n[nH]3)C2)C1 [compound 431],0.39
22,O=C(N1CC(C2CN(Cc3ccc(C(F)(F)F)cc3)C2)C1)N1CC2(CC(c3nnc(C4CC4)[nH]3)C2)C1 [compound 360],32
23,CC(C)(C)Cc1nnc(C23CC(C4CCN(C(=O)N5CC6(CC(c7nc(C8(O)CC8)n[nH]7)C6)C5)CC4)(C2)C3)o1 [compound 498],195
24,O=C(N1CC2(CC(Cc3cncc(C(F)(F)F)c3)C2)C1)N1CC2(CC(c3nc(C4CC(F)(F)C4)n[nH]3)C2)C1 [compound 545],46.9
25,"CC(C)(C(=O)O)c1cccc(OC2CN(C(=O)N3CC4(CC(c5nnc(C6CC6)[nH]5)C4)C3)C2)c1 [Example 387, 2-[3-[1-[6-(5-cyclopropyl-4H-1,2,4-triazol-3-yl)-2-azaspiro[3.3]heptane-2-carbonyl]azetidin-3-yl]oxyphenyl]-2-methyl-propanoic Acid]",79.6
26,N#Cc1ccc(=O)n(CC2CC3(C2)CN(C(=O)N2CC4(CC(c5nc(C6CC6)n[nH]5)C4)C2)C3)c1 [compound 480],12.1
27,N=S(=O)(c1ccc(OC2CC3(C2)CN(C(=O)N2CC4(CC(c5nc(C6CC6)n[nH]5)C4)C2)C3)cc1)C(F)(F)F (stereo not drawn) [compound 730],2.01
